Data: patent US20210113501A1, “METHOD OF ADMINISTERING BETA-HYDROXY-BETA-METHYLBUTYRATE (HMB)” (Metabolic Technologies, Inc., priority 2009, published 2021)

Assay: Study 2 blood chemistry
Type: in vivo, human
Settings: for Aspartate Aminotransferase / Gamma-glutamyl: in U/L (unit assumed)
Experimental: Study 2 design. Study 2 was conducted similar to study 1 with the following modifications. In study 2, plasma levels of HMB were measured for 1440 min (24 h) and total urine collection was also performed for measurement of urinary HMB excretion during this period. After the 180 min blood sample, the subjects were allowed to leave the laboratory and were instructed to return to the laboratory for additional blood samples at 360, 720, and 1440 min after the ingestion of the supplement. As in study 1, each subject took each of the treatments with at least a one week washout period between treatments. Samples were again stored frozen at −70° C. for analysis of plasma and urinary HMB concentrations. Pre-ingestion, 180 min and 1440 min blood samples were again assayed for the same measurements already for study 1. Subjects were provided with a standardized lunch after the 180 min blood sampling and instructed to eat this at approximately 240 min post ingestion. Following the 720 min blood sample, subjects were instructed to eat a normal evening meal before 10 pm. Subjects reported back to the laboratory the following morning for the fasted 1440 min blood sample. A urine collection container was provided and subjects collected all urine produced during the experimental 24 h experimental period. The urine was stored refrigerated when not being collected. Urine volumes were measured and samples of the total urine collection were taken and stored frozen at −70° C. until analyzed for HMB.
The data were analyzed using a crossover design with Proc GLM in SAS. (45) For the timed sampling of plasma HMB a repeated measures polynomial model was used. The model included subject, order, and treatment main effects and time by treatment interaction where appropriate. For other parameters Proc GLM was also used with subject, order, and treatment main effects and the p values are reported for the treatment main effect. Statistical significance was determined for p<0.05 and a trend was determined for 0.05<p<0.10.

**Q.** Which “A:G Ratio” value (After (24 h)) does the source give for CC(C)(O)CC(=O)O [HMB-Acid Gel Sublingual, 3-hydroxy-3-methylbutyric acid] here?
**A.** The value was 1.8 ± 0.1.

**Q.** And the “Alanine Aminotransferase” value (After (24 h))?
**A.** Its value is 16.6 ± 1.8 IU/L.

**Q.** And the Albumin (After (24 h))?
**A.** Its Albumin is 4.2 ± 0.1 g/dL.

**Q.** And the “Alkaline Phosphatase” value (After (24 h))?
**A.** The value was 62.8 ± 6.7 IU/L.

**Q.** What about the “Blood Urea Nitrogen” value (After (24 h)) of the same molecule?
**A.** The value was 15.4 ± 1.1 mg/dL.

**Q.** What about the CO2 (After (24 h)) of the same molecule?
**A.** The CO2 was 27.9 ± 0.4 mEq/L.

**Q.** What about the Chloride (After (24 h)) of the same molecule?
**A.** The Chloride was 104.3 ± 0.9 mEq/L.

**Q.** And the “Cholesterol Ratio” value (After (24 h))?
**A.** Its value is 3.2 ± 0.2.

**Q.** What about the Creatinine (After (24 h)) of the same molecule?
**A.** Its Creatinine is 1.0 ± 0.1 mg/dL.

**Q.** What about the “Direct Bilirubin” value (After (24 h)) of the same molecule?
**A.** Its value is 0.1 ± 0.04 mg/dL.

**Q.** And the Globulin (After (24 h))?
**A.** The Globulin was 2.4 ± 0.1 g/dL.

**Q.** What about the Glucose (After (24 h)) of the same molecule?
**A.** The Glucose was 80.8 ± 2.1 mg/dL.

**Q.** What about the HDL (After (24 h)) of the same molecule?
**A.** Its HDL is 51.3 ± 2.8 mg/dL.

**Q.** And the Iron (After (24 h))?
**A.** The Iron was 65.0 ± 12.1 µg/dL.

**Q.** What about the “Iron Binding Capacity” value (After (24 h)) of the same molecule?
**A.** The value was 385.0 ± 29.8 µg/dL.

**Q.** And the “Iron Saturation” value (After (24 h))?
**A.** The value was 20.1 ± 4.2%.

**Q.** What about the LDL (After (24 h)) of the same molecule?
**A.** The LDL was 90.4 ± 6.8 mg/dL.

**Q.** And the “Lactate Dehydrogenase” value (After (24 h))?
**A.** The value was 151.8 ± 5.2 IU/L.

**Q.** What about the Phosphorus (After (24 h)) of the same molecule?
**A.** The Phosphorus was 4.6 ± 0.2 mg/dL.

**Q.** What about the Potassium (After (24 h)) of the same molecule?
**A.** The Potassium was 4.9 ± 0.1 mEq/L.

**Q.** What about the Protein (After (24 h)) of the same molecule?
**A.** The Protein was 6.6 ± 0.2 g/dL.

**Q.** And the Sodium (After (24 h))?
**A.** Its Sodium is 142.1 ± 1.1 mEq/L.

**Q.** And the “Total Bilirubin” value (After (24 h))?
**A.** The value was 0.5 ± 0.1 mg/dL.

**Q.** What about the “Total Cholesterol” value (After (24 h)) of the same molecule?
**A.** Its value is 163.3 ± 9.3 mg/dL.

**Q.** What about the Triglycerides (After (24 h)) of the same molecule?
**A.** Its Triglycerides is 107.6 ± 16.6 mg/dL.

**Q.** What about the UIBC (After (24 h)) of the same molecule?
**A.** Its UIBC is 312.0 ± 35.9 µg/dL.

**Q.** And the “Uric Acid” value (After (24 h))?
**A.** The value was 4.7 ± 0.3 mg/dL.

**Q.** And the “Aspartate Aminotransferase” value (After (24 h))?
**A.** Its value is 24.8 ± 2.3.

**Q.** And the Gamma-glutamyl (After (24 h))?
**A.** The Gamma-glutamyl was 13.9 ± 1.0.

**Q.** And the “A:G Ratio” value (Before)?
**A.** Its value is 1.8 ± 0.1.

**Q.** And the “Alanine Aminotransferase” value (Before)?
**A.** The value was 15.3 ± 1.5 IU/L.

**Q.** And the Albumin (Before)?
**A.** Its Albumin is 4.1 ± 0.1 g/dL.

**Q.** And the “Alkaline Phosphatase” value (Before)?
**A.** Its value is 66.5 ± 7.3 IU/L.

**Q.** What about the “Blood Urea Nitrogen” value (Before) of the same molecule?
**A.** Its value is 15.3 ± 1.7 mg/dL.

**Q.** What about the CO2 (Before) of the same molecule?
**A.** The CO2 was 25.3 ± 0.8 mEq/L.

**Q.** What about the Chloride (Before) of the same molecule?
**A.** The Chloride was 102.1 ± 0.5 mEq/L.

**Q.** And the “Cholesterol Ratio” value (Before)?
**A.** The value was 3.1 ± 0.2.

**Q.** What about the Creatinine (Before) of the same molecule?
**A.** Its Creatinine is 1.0 ± 0.1 mg/dL.

**Q.** What about the “Direct Bilirubin” value (Before) of the same molecule?
**A.** The value was 0.1 ± 0.03 mg/dL.

**Q.** And the Globulin (Before)?
**A.** Its Globulin is 2.3 ± 0.1 g/dL.

**Q.** What about the Glucose (Before) of the same molecule?
**A.** The Glucose was 73.0 ± 1.8 mg/dL.

**Q.** What about the HDL (Before) of the same molecule?
**A.** Its HDL is 52.3 ± 3.1 mg/dL.

**Q.** And the Iron (Before)?
**A.** Its Iron is 107.6 ± 13.7 µg/dL.

**Q.** What about the “Iron Binding Capacity” value (Before) of the same molecule?
**A.** Its value is 371.9 ± 31.4 µg/dL.

**Q.** What about the “Iron Saturation” value (Before) of the same molecule?
**A.** Its value is 30.1 ± 5.1%.

**Q.** And the LDL (Before)?
**A.** The LDL was 91.3 ± 5.9 mg/dL.

**Q.** What about the “Lactate Dehydrogenase” value (Before) of the same molecule?
**A.** The value was 163.8 ± 11.9 IU/L.

**Q.** And the Phosphorus (Before)?
**A.** Its Phosphorus is 4.1 ± 0.1 mg/dL.

**Q.** What about the Potassium (Before) of the same molecule?
**A.** The Potassium was 4.0 ± 0.1 mEq/L.

**Q.** What about the Protein (Before) of the same molecule?
**A.** The Protein was 6.5 ± 0.2 g/dL.

**Q.** What about the Sodium (Before) of the same molecule?
**A.** The Sodium was 138.5 ± 0.6 mEq/L.

**Q.** And the “Total Bilirubin” value (Before)?
**A.** The value was 0.6 ± 0.1 mg/dL.

**Q.** And the “Total Cholesterol” value (Before)?
**A.** Its value is 161.6 ± 9.4 mg/dL.

**Q.** What about the Triglycerides (Before) of the same molecule?
**A.** Its Triglycerides is 93.1 ± 10.6 mg/dL.

**Q.** What about the UIBC (Before) of the same molecule?
**A.** Its UIBC is 264.3 ± 33.3 µg/dL.

**Q.** And the “Uric Acid” value (Before)?
**A.** The value was 4.7 ± 0.3 mg/dL.

**Q.** And the “A:G Ratio % Change” value (Before to After)?
**A.** The value was −1.4%.

**Q.** And the “Alanine Aminotransferase % Change” value (Before to After)?
**A.** Its value is 9.0%.

**Q.** What about the “Albumin % Change” value (Before to After) of the same molecule?
**A.** Its value is 2.7%.

**Q.** And the “Alkaline Phosphatase % Change” value (Before to After)?
**A.** The value was −5.6%.

**Q.** What about the “Aspartate Aminotransferase % Change” value (Before to After) of the same molecule?
**A.** The value was 3.7%.

**Q.** And the “Blood Urea Nitrogen % Change” value (Before to After)?
**A.** Its value is 0.8%.

**Q.** What about the “CO2 % Change” value (Before to After) of the same molecule?
**A.** The value was 10.4%.

**Q.** And the “Chloride % Change” value (Before to After)?
**A.** Its value is 2.1%.

**Q.** And the “Cholesterol Ratio % Change” value (Before to After)?
**A.** Its value is 3.6%.

**Q.** What about the “Creatinine % Change” value (Before to After) of the same molecule?
**A.** Its value is 7.9%.

**Q.** And the “Direct Bilirubin % Change” value (Before to After)?
**A.** Its value is −12.8%.

**Q.** What about the “Gamma-glutamyl % Change” value (Before to After) of the same molecule?
**A.** The value was 0.0%.

**Q.** What about the “Globulin % Change” value (Before to After) of the same molecule?
**A.** Its value is 3.2%.

**Q.** And the “Glucose % Change” value (Before to After)?
**A.** The value was 10.6%.

**Q.** What about the “HDL % Change” value (Before to After) of the same molecule?
**A.** The value was −1.9%.

**Q.** And the “Iron % Change” value (Before to After)?
**A.** Its value is −39.6%.

**Q.** What about the “Iron Binding Capacity % Change” value (Before to After) of the same molecule?
**A.** The value was 3.5%.

**Q.** And the “Iron Saturation % Change” value (Before to After)?
**A.** The value was −33.2%.

**Q.** What about the “LDL % Change” value (Before to After) of the same molecule?
**A.** The value was −1.0%.

**Q.** What about the “Lactate Dehydrogenase % Change” value (Before to After) of the same molecule?
**A.** The value was −7.3%.

**Q.** What about the “Phosphorus % Change” value (Before to After) of the same molecule?
**A.** The value was 11.5%.

**Q.** And the “Potassium % Change” value (Before to After)?
**A.** The value was 21.7%.

**Q.** And the “Protein % Change” value (Before to After)?
**A.** Its value is 2.9%.

**Q.** And the “Sodium % Change” value (Before to After)?
**A.** The value was 2.6%.

**Q.** And the “Total Bilirubin % Change” value (Before to After)?
**A.** Its value is −13.3%.

**Q.** And the “Total Cholesterol % Change” value (Before to After)?
**A.** Its value is 1.0%.

**Q.** And the “Triglycerides % Change” value (Before to After)?
**A.** Its value is 15.6%.

**Q.** And the “UIBC % Change” value (Before to After)?
**A.** Its value is 18.1%.

**Q.** What about the “Uric Acid % Change” value (Before to After) of the same molecule?
**A.** The value was 0.8%.

**Q.** What about the “Aspartate Aminotransferase” value (Before) of the same molecule?
**A.** Its value is 23.9 ± 3.2.

**Q.** What about the Gamma-glutamyl (Before) of the same molecule?
**A.** The Gamma-glutamyl was 13.9±1.2.
